{"source": "patent US8728537B2", "about": "“Compositions for improvement of wound healing” (Cytotools AG, priority 2003, dated 2014)", "tested_on": "MRC 5 fibroblasts", "experiment": "Cell biological test of active substance: proliferation of MRC 5 fibroblasts by quantification of cellular DNA after DAPI staining", "assay_type": "cell-based", "conditions": "solutions containing only RC (50 μM) or only chlorite (100 μM)", "method": "The MRC 5 cells are seeded at 400 cells/cm^2 in a 24 well cell culture plate. The subsequent cultivation is carried out in an incubator 37° C. and 5 vol. % CO2 in a water vapor saturated atmosphere. After 24 hours of precultivation, the culture medium is suctioned off and the cells are washed with PBS.\nAfter 24, 48 and 72 hours, the proliferation of the cells is determined by quantification of the cellular DNA in a fluorometer (Novostar-Company: BMG Labtechnologies) after DAPI staining. Here, the increased fluorescence in the samples is equal to a proliferation of the cells.\nThe plate to be measured is washed once per well with 500 μl PBS and then 250 μl PBS is placed in each well. 250 μl lysis buffer are added and the cells are lysed in a shaker at the lowest setting for 30 min at RT. Subsequently, 500 μl DAPI solution is added and the plate is left to stand for a further 10 min at RT.\nThe plate is measured at 355 nm ex. and 460 nm em. in the Novostar. Normally, work is carried out with a gain adjustment of 1400-1600.\nThe multiple determinations are averaged and the error values are calculated. The data obtained is evaluated graphically."}
{"substance": "chlorite", "values": [{"measurement": "effect on the growth behaviour of the fibroblasts", "result": "no effect whatsoever"}]}
